Experimental findings from article PMC11600167 (JACS Au, 2024) are described below.

Assay in all cases: glycan microarray on Cu2O@Ag slides
What all share (assay type): binding

For test [1], the target named is T1, hGal-7 (human galectin-7) (Homo sapiens, UniProt P47929).
T1 construct: gene LGALS7; construct details only in supplement
As to conditions: immobilised glycan via azide linker; hGal-7 25 μg/mL.

Test [2] deals with T2, hGal-1 (human galectin-1) (Homo sapiens, UniProt P09382).
T2 construct: gene LGALS1; dimeric lectin; construct details only in supplement
T2 sequence (P09382 2-135): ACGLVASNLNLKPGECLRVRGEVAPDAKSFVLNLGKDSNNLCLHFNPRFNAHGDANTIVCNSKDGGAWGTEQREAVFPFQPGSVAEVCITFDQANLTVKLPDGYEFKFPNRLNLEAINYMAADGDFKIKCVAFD
As to conditions: immobilised glycan via azide linker; hGal-1 25 μg/mL.

The target in test [3] is T3, hGal-3 (human galectin-3) (Homo sapiens, UniProt P17931).
T3 construct: gene LGALS3; chimera-type galectin; construct details only in supplement
T3 sequence (P17931 2-250): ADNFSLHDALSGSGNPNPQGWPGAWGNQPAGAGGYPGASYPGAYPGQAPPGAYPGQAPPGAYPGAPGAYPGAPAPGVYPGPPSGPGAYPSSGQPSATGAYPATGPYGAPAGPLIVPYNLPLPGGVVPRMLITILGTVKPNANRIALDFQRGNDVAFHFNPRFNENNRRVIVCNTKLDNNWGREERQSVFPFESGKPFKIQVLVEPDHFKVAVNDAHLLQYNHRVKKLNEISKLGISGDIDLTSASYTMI
The following applies: immobilised glycan via azide linker; hGal-3 25 μg/mL.

T1 sequence (P47929 whole entry): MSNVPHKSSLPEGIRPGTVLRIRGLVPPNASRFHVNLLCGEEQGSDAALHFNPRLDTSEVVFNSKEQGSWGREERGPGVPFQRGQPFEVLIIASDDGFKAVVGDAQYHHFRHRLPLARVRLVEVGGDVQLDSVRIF

In the case of `CC(=O)N[C@H]1[C@H](O[C@H]2[C@@H](O)[C@@H](CO)O[C@@H](O[C@H]3[C@H](O)[C@@H](O)C(O)O[C@@H]3CO)[C@@H]2O)O[C@H](CO)[C@@H](O)[C@@H]1O[C@@H]1O[C@H](CO)[C@H](O)[C@H](O)[C@H]1O` (stereo partly drawn) [LNT], the “glycan microarray on Cu2O@Ag slides” value in test [1] is “with LNT showing the strongest binding affinity”; in test [2] it was “LNT and LNnT, respectively) further increased the binding affinity”.

Take `CC(=O)N[C@H]1[C@H](O[C@H]2[C@@H](O)[C@@H](CO)O[C@@H](O[C@H]3[C@H](O)[C@@H](O)C(O)O[C@@H]3CO)[C@@H]2O)O[C@H](CO)[C@@H](O[C@@H]2O[C@H](CO)[C@H](O)[C@H](O)[C@H]2O)[C@@H]1O` (stereo partly drawn) [LNnT]: the “glycan microarray on Cu2O@Ag slides” value in test [3] is listed as “The stronger affinity of LNnT compared to LNT”.
